What was measured:
Experiment in all cases: selective drug sensitivity score (sDSS, relative to normal bone marrow) (sDSS (score)); higher = more potent and effective on the cell line relative to normal bone marrow cells
Details in all cases: 72 h
MHH-CALL-3 = test system: MHH-CALL-3
KASUMI-2 = test system: KASUMI-2
CCRF-HSB2 = test system: CCRF-HSB2
DND-41 = test system: DND-41
SUP-B15 = test system: SUP-B15
NALM-16 = test system: NALM-16
COG-LL-355h = test system: COG-LL-355h
REH = test system: REH
KOPN-8 = test system: KOPN-8
TANOUE = test system: TANOUE
PEER = test system: PEER
RPMI-8402 = test system: RPMI-8402
COG-LL-394h = test system: COG-LL-394h
MOLT-4 = test system: MOLT-4
KASUMI-9 = test system: KASUMI-9
PF-382 = test system: PF-382
HAL-01 = test system: HAL-01
NALL-1 = test system: NALL-1
KASUMI-10 = test system: KASUMI-10
MOLT-16 = test system: MOLT-16
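Also: ALL cell lines in 384-well plates, five doses spanning 10,000-fold, each plate scaled between vehicle and 100 µmol/L benzalkonium chloride controls, sDSS an adapted area-under-curve metric.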

| Structure (SMILES) | selective drug sensitivity score (MHH-CALL-3) | selective drug sensitivity score (KASUMI-2) | selective drug sensitivity score (CCRF-HSB2) | selective drug sensitivity score (DND-41) | selective drug sensitivity score (SUP-B15) | selective drug sensitivity score (NALM-16) | selective drug sensitivity score (COG-LL-355h) | selective drug sensitivity score (REH) | selective drug sensitivity score (KOPN-8) | selective drug sensitivity score (TANOUE) | selective drug sensitivity score (PEER) | selective drug sensitivity score (RPMI-8402) | selective drug sensitivity score (COG-LL-394h) | selective drug sensitivity score (MOLT-4) | selective drug sensitivity score (KASUMI-9) | selective drug sensitivity score (PF-382) | selective drug sensitivity score (HAL-01) | selective drug sensitivity score (NALL-1) | selective drug sensitivity score (KASUMI-10) | selective drug sensitivity score (MOLT-16) |
| --- | --- | --- | --- | --- | --- | --- | --- | --- | --- | --- | --- | --- | --- | --- | --- | --- | --- | --- | --- | --- |
| CC(=O)c1cc2c(o1)C(=O)c1ccccc1C2=O [Napabucasin] (top concentration 20000 nM) | -3.28 | -3.38 | 0.12 | -0.18 | 1.22 | -11.8 | -0.18 | -1.58 | 3.72 | -4.88 | 0.62 | -6.08 | -9.68 | -1.28 | -1.28 | -0.28 | -0.38 | -7.38 | 0.92 | 0.12 |
| Cn1cnc2c(F)c(Nc3ccc(Br)cc3Cl)c(C(=O)NOCCO)cc21 [Selumetinib] (top concentration 10000 nM) | 15.4 | 7.5 | 0.8 | 0.4 | 5.4 | -1.3 | 4.7 | -4.1 | 7 | -4.1 | -1.6 | -4.1 | -3 | -3.7 | 2.2 | -1.8 | 11 | -4.1 | -3.5 | -3.4 |
| Cc1ncc(Cl)cc1NCc1ccc(C(=O)N[C@@H](CC2CCCC2)C(=O)NC2CC2)s1 (top concentration 5000 nM) | 8.26 | 4.56 | 0.66 | -0.94 | 3.46 | 1.06 | 2.26 | -0.84 | 2.96 | -0.94 | -0.24 | -0.94 | 1.36 | 3.26 | -0.84 | -0.94 | 1.16 | -0.94 | 2.46 | 3.96 |
| Cc1nc(Nc2n[nH]c3c2CN(C(=O)N[C@H](CN(C)C)c2ccccc2)C3(C)C)c2sccc2n1 (top concentration 10000 nM) | 0.18 | 3.28 | 11.1 | 0.98 | 12.8 | 2.58 | 3.98 | -3.72 | 18.3 | -11.1 | -3.12 | 6.38 | -7.92 | -1.22 | 11.6 | 1.98 | -10.5 | -7.42 | 1.68 | 22.7 |
| COC12C(COC(N)=O)C3=C(C(=O)C(C)=C(N)C3=O)N1CC1NC12 (stereo in doubt) [Mitomycin_C] (top concentration 10000 nM) | -2.86 | 4.24 | -2.86 | -2.86 | 1.24 | -2.86 | 0.44 | 3.74 | 4.24 | -2.86 | -2.86 | -2.86 | -2.86 | -2.86 | 4.04 | -2.86 | 0.74 | -2.86 | -2.86 | -2.86 |
| CC(C)(C)c1nc(-c2cccc(NS(=O)(=O)c3c(F)cccc3F)c2F)c(-c2ccnc(N)n2)s1 [Dabrafenib] (top concentration 2500 nM) | -1.52 | -1.52 | 4.48 | -1.52 | 1.88 | -1.52 | 0.38 | -1.52 | 8.48 | 0.48 | 3.48 | -1.12 | -0.22 | -1.52 | 3.58 | 0.38 | 1.18 | -1.42 | 0.58 | 4.68 |
| CC(C)[C@@H](CS(=O)(=O)C(C)C)N1C(=O)[C@@](C)(CC(=O)O)C[C@H](c2cccc(Cl)c2)[C@H]1c1ccc(Cl)cc1 [AMG-232] (top concentration 10000 nM) | 12.6 | 12.3 | 9.26 | -8.84 | 16.5 | -10.2 | 8.76 | 8.36 | 10.4 | -10.5 | -6.94 | -9.14 | 8.76 | 10.1 | 13.1 | -8.94 | 11 | -8.14 | 10.1 | 8.06 |
| CC(=O)c1c(C)c2cnc(Nc3ccc(N4CCNCC4)cn3)nc2n(C2CCCC2)c1=O [Palbociclib] (top concentration 10000 nM) | 5.38 | 0.88 | 1.68 | 2.48 | 2.38 | 1.98 | 2.88 | 3.08 | 16.5 | -6.12 | 5.38 | 5.98 | -5.62 | 1.08 | 8.78 | 5.48 | 1.48 | -1.72 | 0.88 | 8.58 |
| Nc1ncnc2c1nc(N)n2[C@@H]1O[C@H](CO)[C@@H](O)[C@H]1O [8-amino-adenosine] (top concentration 50000 nM) | 5.38 | 6.08 | 6.98 | -0.62 | 7.28 | 4.48 | -1.42 | 2.88 | 7.48 | 0.98 | 5.98 | 0.18 | 6.58 | -2.52 | 7.08 | 0.18 | 7.08 | 2.08 | 3.28 | 5.68 |
